Results taken from patent US8076487B2, “Pyridone derivative and herbicide” (Kumiai Chemical Industry Co., Ltd., priority 2006, dated 2011).

Tests used:
Assay type in all cases: in vivo
[1] = tested on: Japanese bulrush (Scirpus juncoides Roxb.); test: Test Example 1: herbicidal effect by soil application to paddy field; conditions: paddy field soil application; active ingredient 1,000 g per 1 hectare; wettable powder added dropwise to water surface the day after sowing; examined on the 21st day after application
Outline: (§1)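 Under greenhouse conditions, seeds sown on puddled paddy soil in 100 cm2 pots under 3 cm of standing water received the test compound; injury was assessed with a standard scoring scheme three weeks (day 21) after treatment.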

[2] = tested on: early watergrass (Echinochloa oryzicola Vasing); test: as above; conditions: paddy field soil application; active ingredient 1,000 g per 1 hectare; wettable powder added dropwise to water surface the day after sowing; examined on the 21st day after application
Outline: as §1

[3] = tested on: heartshape false pickerelweed (Monochoria vaginalis (Burm.f.) C.Presl); test: as above; conditions: paddy field soil application; active ingredient 1,000 g per 1 hectare; wettable powder added dropwise to water surface the day after sowing; examined on the 21st day after application
Outline: as §1

[4] = tested on: barnyardgrass (Echinochloa crus-galli (L.) P. Beauv. var. crus-galli); test: Test Example 2: herbicidal effect by soil application to upland field; conditions: soil surface spray, upland field soil, 1,000 g active ingredient per hectare, 21st day after application
Outline: (§2)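 In this soil-application test, sown and soil-covered pots are sprayed uniformly with the formulation diluted in water, giving 1,000 g of active ingredient per ha in a volume of 1,000 L per ha. Plants then grow in a greenhouse for 21 days before herbicidal scoring by a standard scale.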

[5] = tested on: green foxtail (Setaria viridis (L.) P. Beauv.); test: as above; conditions: soil surface spray, upland field soil, 1,000 g active ingredient per hectare, 21st day after application
Outline: as §2

[6] = tested on: slender amaranth (Amaranthus viridis L.); test: as above; conditions: soil surface spray, upland field soil, 1,000 g active ingredient per hectare, 21st day after application
Outline: as §2

[7] = tested on: velvetleaf (Abutilon theophrasti medicus); test: as above; conditions: soil surface spray, upland field soil, 1,000 g active ingredient per hectare, 21st day after application
Outline: as §2

[8] = tested on: barnyardgrass (Echinochloa crus-galli (L.) P. Beauv. var. crus-galli); test: Test Example 3: herbicidal effect by application to upland field (foliage treatment); conditions: 14th day after application; for herbicidal effect (index), Barnyardgrass: foliage treatment, plants grown two weeks, 1,000 g active ingredient per hectare; for herbicidal effect, Barnyardgrass: foliage treatment, 1,000 g active ingredient per 1 hectare, greenhouse
Outline: (§3)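 A single foliar application of a water-diluted wettable powder, at 1,000 g of active ingredient per hectare, was made to plants raised for two weeks from seed in field soil. Herbicidal activity was judged visually after a further 14 days in the greenhouse.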

[9] = tested on: green foxtail (Setaria viridis (L.) P. Beauv.); test: as above; conditions: 14th day after application; for herbicidal effect (index), Green Foxtail: foliage treatment, plants grown two weeks, 1,000 g active ingredient per hectare; for herbicidal effect, Green Foxtail: foliage treatment, 1,000 g active ingredient per 1 hectare, greenhouse
Outline: as §3

[10] = tested on: slender amaranth (Amaranthus viridis L.); test: as above; conditions: 14th day after application; for herbicidal effect (index), Slender Amaranth: foliage treatment, plants grown two weeks, 1,000 g active ingredient per hectare; for herbicidal effect, Slender Amaranth: foliage treatment, 1,000 g active ingredient per 1 hectare, greenhouse
Outline: as §3

[11] = tested on: velvetleaf (Abutilon theophrasti medicus); test: as above; conditions: 14th day after application; for herbicidal effect (index), Velvetleaf: foliage treatment, plants grown two weeks, 1,000 g active ingredient per hectare; for herbicidal effect, Velvetleaf: foliage treatment, 1,000 g active ingredient per 1 hectare, greenhouse
Outline: as §3

Row | SMILES | herbicidal effect, Scirpus juncoides Roxb. [1] | herbicidal effect, Echinochloa oryzicola Vasing [2] | herbicidal effect, Monochoria vaginalis (Burm. f.) C. Presl [3] | herbicidal effect (index), Barnyardgrass [4] | herbicidal effect (index), Green Foxtail [5] | herbicidal effect (index), Slender Amaranth [6] | herbicidal effect (index), Velvetleaf [7] | herbicidal effect (index), Barnyardgrass [8] | herbicidal effect (index), Green Foxtail [9] | herbicidal effect (index), Slender Amaranth [10] | herbicidal effect (index), Velvetleaf [11] | herbicidal effect, Barnyardgrass [8] | herbicidal effect, Green Foxtail [9] | herbicidal effect, Slender Amaranth [10] | herbicidal effect, Velvetleaf [11]
1 | O=C1CCCC(O)=C1C(=O)c1ccc(C(F)(F)F)n(CS(=O)(=O)C2CCCC2)c1=O [I-60] | 5 (90% or more of herbicidal effect and crop phytotoxicity) | 5 (90% or more of herbicidal effect and crop phytotoxicity) | 5 (90% or more of herbicidal effect and crop phytotoxicity) | 5 (90% or more of herbicidal effect and crop phytotoxicity) | 5 (90% or more of herbicidal effect and crop phytotoxicity) | 5 (90% or more of herbicidal effect and crop phytotoxicity) | 5 (90% or more of herbicidal effect and crop phytotoxicity) | 5 (90% or more of herbicidal effect and crop phytotoxicity) | 5 (90% or more of herbicidal effect and crop phytotoxicity) | 5 (90% or more of herbicidal effect and crop phytotoxicity) | 5 (90% or more of herbicidal effect and crop phytotoxicity) | – | – | – | –
2 | CS(=O)(=O)c1cccc(-n2c(C(F)(F)F)ccc(C(=O)C3=C(O)CCCC3=O)c2=O)c1 [I-82] | 5 (90% or more of herbicidal effect and crop phytotoxicity) | 5 (90% or more of herbicidal effect and crop phytotoxicity) | 5 (90% or more of herbicidal effect and crop phytotoxicity) | 5 (90% or more of herbicidal effect and crop phytotoxicity) | 5 (90% or more of herbicidal effect and crop phytotoxicity) | 5 (90% or more of herbicidal effect and crop phytotoxicity) | 5 (90% or more of herbicidal effect and crop phytotoxicity) | 5 (90% or more of herbicidal effect and crop phytotoxicity) | 5 (90% or more of herbicidal effect and crop phytotoxicity) | 5 (90% or more of herbicidal effect and crop phytotoxicity) | 5 (90% or more of herbicidal effect and crop phytotoxicity) | – | – | – | –
3 | O=C1CCCC(O)=C1C(=O)c1ccc(C(F)(F)F)n(-c2ccsc2)c1=O [I-148] | 5 (90% or more of herbicidal effect and crop phytotoxicity) | 5 (90% or more of herbicidal effect and crop phytotoxicity) | 5 (90% or more of herbicidal effect and crop phytotoxicity) | 5 (90% or more of herbicidal effect and crop phytotoxicity) | 5 (90% or more of herbicidal effect and crop phytotoxicity) | 5 (90% or more of herbicidal effect and crop phytotoxicity) | 5 (90% or more of herbicidal effect and crop phytotoxicity) | – | – | – | – | 5 (90% or more of herbicidal effect and crop phytotoxicity) | 5 (90% or more of herbicidal effect and crop phytotoxicity) | 5 (90% or more of herbicidal effect and crop phytotoxicity) | 5 (90% or more of herbicidal effect and crop phytotoxicity)
4 | Cn1ncc(C(=O)c2ccc(C(F)(F)F)n(CCS(C)(=O)=O)c2=O)c1O [IV-54] | 4 (70 to less than 90% of herbicidal effect and crop phytotoxicity) | 5 (90% or more of herbicidal effect and crop phytotoxicity) | 4 (70 to less than 90% of herbicidal effect and crop phytotoxicity) | 5 (90% or more of herbicidal effect and crop phytotoxicity) | 5 (90% or more of herbicidal effect and crop phytotoxicity) | 5 (90% or more of herbicidal effect and crop phytotoxicity) | 5 (90% or more of herbicidal effect and crop phytotoxicity) | – | – | – | – | 5 (90% or more of herbicidal effect and crop phytotoxicity) | 5 (90% or more of herbicidal effect and crop phytotoxicity) | 5 (90% or more of herbicidal effect and crop phytotoxicity) | 5 (90% or more of herbicidal effect and crop phytotoxicity)
5 | COc1ccc(-n2c(C(F)(F)F)ccc(C(=O)C3=C(O)CCCC3=O)c2=O)cc1Cl [I-110] | 5 (90% or more of herbicidal effect and crop phytotoxicity) | 5 (90% or more of herbicidal effect and crop phytotoxicity) | 5 (90% or more of herbicidal effect and crop phytotoxicity) | 5 (90% or more of herbicidal effect and crop phytotoxicity) | 4 (70 to less than 90% of herbicidal effect and crop phytotoxicity) | 5 (90% or more of herbicidal effect and crop phytotoxicity) | 5 (90% or more of herbicidal effect and crop phytotoxicity) | – | – | – | – | 5 (90% or more of herbicidal effect and crop phytotoxicity) | 3 (50 to less than 70% of herbicidal effect and crop phytotoxicity) | 5 (90% or more of herbicidal effect and crop phytotoxicity) | 4 (70 to less than 90% of herbicidal effect and crop phytotoxicity)
6 | CS(=O)(=O)CCCn1c(C(F)(F)F)ccc(C(=O)C2=C(O)CCCC2=O)c1=O [I-71] | 5 (90% or more of herbicidal effect and crop phytotoxicity) | 5 (90% or more of herbicidal effect and crop phytotoxicity) | 5 (90% or more of herbicidal effect and crop phytotoxicity) | 5 (90% or more of herbicidal effect and crop phytotoxicity) | 5 (90% or more of herbicidal effect and crop phytotoxicity) | 5 (90% or more of herbicidal effect and crop phytotoxicity) | 5 (90% or more of herbicidal effect and crop phytotoxicity) | 5 (90% or more of herbicidal effect and crop phytotoxicity) | 5 (90% or more of herbicidal effect and crop phytotoxicity) | 5 (90% or more of herbicidal effect and crop phytotoxicity) | 5 (90% or more of herbicidal effect and crop phytotoxicity) | – | – | – | –
7 | Cn1ncc(C(=O)c2ccc(C(F)(F)F)n(C)c2=O)c1OC(=O)c1ccccc1 [IV-197] | 5 (90% or more of herbicidal effect and crop phytotoxicity) | 5 (90% or more of herbicidal effect and crop phytotoxicity) | 5 (90% or more of herbicidal effect and crop phytotoxicity) | 4 (70 to less than 90% of herbicidal effect and crop phytotoxicity) | 4 (70 to less than 90% of herbicidal effect and crop phytotoxicity) | 5 (90% or more of herbicidal effect and crop phytotoxicity) | 5 (90% or more of herbicidal effect and crop phytotoxicity) | – | – | – | – | 4 (70 to less than 90% of herbicidal effect and crop phytotoxicity) | 4 (70 to less than 90% of herbicidal effect and crop phytotoxicity) | 5 (90% or more of herbicidal effect and crop phytotoxicity) | 5 (90% or more of herbicidal effect and crop phytotoxicity)
8 | CSc1cccc(-n2c(C(F)(F)F)ccc(C(=O)C3=C(O)CCCC3=O)c2=O)c1 [I-80] | 5 (90% or more of herbicidal effect and crop phytotoxicity) | 5 (90% or more of herbicidal effect and crop phytotoxicity) | 5 (90% or more of herbicidal effect and crop phytotoxicity) | 5 (90% or more of herbicidal effect and crop phytotoxicity) | 5 (90% or more of herbicidal effect and crop phytotoxicity) | 5 (90% or more of herbicidal effect and crop phytotoxicity) | 5 (90% or more of herbicidal effect and crop phytotoxicity) | 5 (90% or more of herbicidal effect and crop phytotoxicity) | 5 (90% or more of herbicidal effect and crop phytotoxicity) | 5 (90% or more of herbicidal effect and crop phytotoxicity) | 5 (90% or more of herbicidal effect and crop phytotoxicity) | – | – | – | –
